Reference: patent US20140243210A1, “PURIFICATION OF IMMUNOGLOBULINS USING AFFINITY CHROMATOGRAPHY AND PEPTIDE LIGANDS” (priority 2005, published 2014)
Where “and” joins values, the source holds several entries; their conditions need not be identical. Equal values may be shown once. Read-outs that look alike come from different tables or passages of the source. No end group written: not given here.

Assays:
intact HIgG = experiment: Secondary screening, batch format, competitive and non-competitive modes; format: binding, human; settings: for Competitive condition, Bound / Competitive condition, Unbound / Non-competitive, Bound / Non-competitive, Unbound: second round; for Competitive condition, Bound / Competitive condition, Unbound: HIgG in MEM, radiolabel extent 2.9%; for Bound %, HIgG, Competitive / Bound %, HIgG, Non-competitive (Micro-BCA): first round; for Bound %, HIgG, Competitive: 14C-HIgG 1 μM spiked in MEM (10% FCS, 5% TPB), radiolabel extent 3.6%; for Bound %, HIgG, Non-competitive (Micro-BCA): pure HIgG 1 μM in PBS; for Non-competitive, Bound / Non-competitive, Unbound: HIgG in PBS
Procedure: (§1) The batch format was used in both competitive and non-competitive modes. The non-competitive mode involved screening using only pure target proteins in PBS buffer. For the competitive mode, target proteins were spiked into mammalian culture medium MEM (Minimum Essential Medium) containing 10% fetal calf serum (FCS) and 5% tryptose phosphate broth (TPB).
(§2) Two target proteins, the Fc fragment of human IgG (HIgG) and intact HIgG, were applied at a concentration of 1 μM. To carry out the secondary screening, 20 mg of the re-synthesized resins were swelled with 20% methanol for one hour, then washed thoroughly and equilibrated with PBS buffer. The beads were incubated with 400 μl of 1 μM 14C-Fc or 14C-IgG in the corresponding solutions in a 0.5 ml centrifuge filter with a 0.45 μm Durapore membrane (Millipore, Milford, Mass.) on a rotating plate for two hours. The particles were washed with PBS buffer for 15 min, and then sequentially washed for one hour each with 400 of: 1 M NaCl in PBS, then 2% acetic acid (AcOH) and 6 M guanidine chloride (GdnHCl). After centrifugation each solution was collected into scintillation fluid for radioactivity counting. The total unbound protein was determined by combining the counts of unbound protein and the wash of PBS. Finally, resins were suspended in scintillation liquid and counted for radioactivity in the same manner, allowing a total radioactivity balance.

IgG = settings: cited from earlier work
[1] = tested on: Fc fragment of human IgG (HIgG); experiment: Secondary screening, batch format, competitive and non-competitive modes; format: binding; settings: first round; for Bound %, Fc fragment, Non-competitive: 14C-Fc 1 μM in PBS; for Bound %, Fc fragment, Competitive: 14C-Fc 1 μM spiked in MEM (10% FCS, 5% TPB)
Procedure: as §1, §2

HIgG = experiment: Adsorption isotherm measurements, Langmuir model; format: binding, human
Procedure: Individual peptide sequences determined to bind the Fc fragment of HIgG in primary screening were synthesized directly onto Toyopearl AF-amino-650 M resin (Tosoh BioSciences, Montgomeryville, Pa.) at a substitution of 100 μmol/g resin (Peptides International, Louisville, Ky.). […] Adsorption isotherms were measured in a set of batch experiments at room temperature. All the experiments were performed at least in duplicate. Beads were washed thoroughly and equilibrated with PBS buffer. Centrifugal filters (0.5 ml) with 0.45 μm Durapore membranes (Millipore, Milford, Mass.) were used as adsorption vessels. Resins (10 mg of resin in each vessel) were then equilibrated overnight in PBS, pH 7.4 (Sigma Chemical, St. Louis, Mo.). After removing the PBS, 400 μl of HIgG solutions with concentrations from 0.05 to 10 mg/ml in PBS were added separately to the reaction vessels and incubated on an orbital shaker for 2 hours. The unbound HIgG fractions were collected by centrifugation and the protein concentrations were determined using a Micro-BCA Assay (Pierce, Rockford, Ill.) or by UV-absorbance at 280 nm. The amount of bound HIgG was calculated by mass balance. The data were fit to a Langmuir isotherm model (see Equation 2, below).
where, q=Concentration of bound adsorbate mg-protein/g-resin C=Concentration of free adsorbate mg-protein/ml-solution Kd=Dissociation constant mg/ml qm=Maximum capacity constant mg-protein/g-resin

[2] = direct Langmuir fit, PBS pH 7.4, room temperature, peptides 0.1 meq/g, read-out: Kd, Langmuir
[3] = direct Langmuir fit, PBS pH 7.4, peptides 0.1 meq/g
[4] = double reciprocal curve, PBS pH 7.4, room temperature, peptides 0.1 meq/g, read-out: Kd, DR curve
[5] = double reciprocal curve, PBS pH 7.4, peptides 0.1 meq/g
[6] = substitution 0.080 mmol/g, read-out: Kd
[7] = Table 6, direct Langmuir fit, 0.1 meq/g, PBS pH 7.4

In the case of “HYIDAK (not fully specified (C-terminus)) [hexapeptide ligand on Toyopearl resin]”, the “Competitive condition, Bound” value (intact HIgG) is reported as 8.64% and the “Competitive condition, Unbound” value (intact HIgG) is reported as 91.36%.

For (RTY)4K2KG [TG19318 (PAM)], the Capacity (IgG; Epoxy-activated Eupergit C30N support) is given as 25 mg/ml mg/ml gel.

With “HYGLGW (not fully specified (C-terminus)) [hexapeptide ligand on Toyopearl resin]” the “Bound %, HIgG, Competitive” value (intact HIgG) was 14.48%, the “Bound %, HIgG, Non-competitive (Micro-BCA)” value (intact HIgG) was 17.89% and the “Bound %, Fc fragment, Non-competitive” value [1] was 19.75%. The “Bound %, Fc fragment, Competitive” value [1] was 4.91%.

For WHWRKR [reference compound], the Kd (HIgG; [2]) was 1.39 µM, the “qm, Langmuir” value (HIgG; [3]) was 62.4 mg/g and the Kd (HIgG; [4]) was 2.47 µM. The “qm, DR curve” value (HIgG; [5]) was 81.9 mg/g.

For “Protein A: protein A immobilized by the CNBr method to 4% cross-linked agarose beads (Amersham Biosciences); positive control [reference compound]”, the Capacity (IgG; 4% cross-link agarose) is listed as 20 mg/ml mg/ml moist gel.

For “HWRGWV [Ac-HWRGWV, acetylated HWRGWV on resin, 0.080 mmol/g]”, the qm (HIgG; substitution 0.080 mmol/g) was 130 mg/g and 130.8 mg/g and the Kd (HIgG; [6]) was 3.8 µM.

With “HANGFL (not fully specified (C-terminus)) [hexapeptide ligand on Toyopearl resin]” the “Bound %, HIgG, Competitive” value (intact HIgG) was 5.58%, the “Bound %, HIgG, Non-competitive (Micro-BCA)” value (intact HIgG) was 10.52% and the “Bound %, Fc fragment, Non-competitive” value [1] was 10.23%. For the same substance, the “Bound %, Fc fragment, Competitive” value [1] was 25.64%.

With “HIQLDG (not fully specified (C-terminus)) [hexapeptide ligand on Toyopearl resin]” the “Competitive condition, Bound” value (intact HIgG) was 10.03% and the “Competitive condition, Unbound” value (intact HIgG) was 89.97%.

In the case of HIWA (not fully specified (C-terminus)), the “Competitive condition, Bound” value (intact HIgG) is reported as 12.87%, the “Competitive condition, Unbound” value (intact HIgG) is reported as 87.13% and the “Non-competitive, Bound” value (intact HIgG) is reported as 7.90%. For the same substance, the “Non-competitive, Unbound” value (intact HIgG) was 92.10%.

For “HPWYVT (not fully specified (C-terminus)) [hexapeptide ligand on Toyopearl resin]”, the “Competitive condition, Bound” value (intact HIgG) was 26.96% and the “Competitive condition, Unbound” value (intact HIgG) was 73.04%.

For “EPIHRSTLTALL (not fully specified) [literature peptide ligand on Amino-NuGel (Hoffman LaRoche)]”, the Capacity (IgG; Amino-NuGel support, IgG source culture) is listed as 320 μg/g μg/g gel.

In the case of “HDVFHT (not fully specified (C-terminus)) [hexapeptide ligand on Toyopearl resin]”, the “Competitive condition, Bound” value (intact HIgG) is reported as 8.55% and the “Competitive condition, Unbound” value (intact HIgG) is reported as 91.45%.

In the case of “truncation of the subunit GFRKYLHFRRHLL of a multiple antigenic peptide (MAP) (Immunoglobulin binding peptide sequence)”, the “Competitive condition, Unbound” value (intact HIgG) is reported as 59.13% and the qm (HIgG; [7]) is reported as 157.9 mg/g.

For “HWRGWV [hexapeptide ligand on Toyopearl AF-amino-650 M resin; 0.1 meq/g unless another substitution is stated]”, the Kd (HIgG; [2]) was 1.33 µM, the “qm, Langmuir” value (HIgG; [3]) was 50.0 mg/g and the Kd (HIgG; [4]) was 2.8 µM. For the same substance, the “qm, DR curve” value (HIgG; [5]) was 54.8 mg/g, the qm (HIgG; substitution 0.022 mmol/g) was 158.1 mg/g and the Kd (HIgG; substitution 0.022 mmol/g, read-out: Kd) was 30 µM. The qm (HIgG; substitution 0.040 mmol/g) was 147.8 mg/g, the Kd (HIgG; substitution 0.040 mmol/g, read-out: Kd) was 20.3 µM and the qm (HIgG; substitution 0.080 mmol/g) was 130 mg/g and 131.8 mg/g. The Kd (HIgG; [6]) was 7.25 µM, the qm (HIgG; substitution 0.10 mmol/g (different synthesis batch)) was 133.6 mg/g and the Kd (HIgG; substitution 0.10 mmol/g (different synthesis batch), read-out: Kd) was 10.4 µM. For the same substance, the qm (HIgG; substitution 0.22 mmol/g) was 136.8 mg/g, the Kd (HIgG; substitution 0.22 mmol/g, read-out: Kd) was 2.58 µM and the qm (HIgG; substitution 0.55 mmol/g) was 137.6 mg/g. The Kd (HIgG; substitution 0.55 mmol/g, read-out: Kd) was 0.947 µM.

For “HLKWYA (not fully specified (C-terminus)) [hexapeptide ligand on Toyopearl resin]”, the “Competitive condition, Bound” value (intact HIgG) was 23.47% and the “Competitive condition, Unbound” value (intact HIgG) was 76.53%.

With “KRGFYY (Immunoglobulin binding peptide sequence) [combination of KRXXXX, KXXGX and aromatic amino acids F and YY]” the “Competitive condition, Bound” value (intact HIgG) was 17.27% and the “Competitive condition, Unbound” value (intact HIgG) was 82.73%.

With “HFDKGF (not fully specified (C-terminus)) [hexapeptide ligand on Toyopearl resin]” the “Bound %, HIgG, Competitive” value (intact HIgG) was 6.01%, the “Bound %, HIgG, Non-competitive (Micro-BCA)” value (intact HIgG) was 10.66% and the “Bound %, Fc fragment, Non-competitive” value [1] was 12.95%. For the same substance, the “Bound %, Fc fragment, Competitive” value [1] was 4.28%.

In the case of “HVHYYW [hexapeptide ligand on Toyopearl resin, 0.1 meq/g]”, the “Competitive condition, Unbound” value (intact HIgG) is reported as 56.73%, the “Non-competitive, Bound” value (intact HIgG) is reported as 55.49% and the “Non-competitive, Unbound” value (intact HIgG) is reported as 44.51%. For the same substance, the qm (HIgG; [7]) was 129.0 mg/g.

In the case of Mannosylerythritol lipid, the Capacity (IgG; Poly(2-hydroxyethyl methacrylate) support) is given as 106 mg/g mg/g gel.

In the case of “HVWQLK (not fully specified (C-terminus)) [hexapeptide ligand on Toyopearl resin]”, the “Competitive condition, Bound” value (intact HIgG) is reported as 15.05% and the “Competitive condition, Unbound” value (intact HIgG) is reported as 84.95%.

With “HWGPTK (not fully specified (C-terminus)) [hexapeptide ligand on Toyopearl resin]” the “Competitive condition, Bound” value (intact HIgG) was 19.93%, the “Competitive condition, Unbound” value (intact HIgG) was 80.07% and the “Non-competitive, Bound” value (intact HIgG) was 14.39%. The “Non-competitive, Unbound” value (intact HIgG) was 85.61%.

For KGEA (not fully specified (C-terminus)), the “Competitive condition, Bound” value (intact HIgG) was 7.34%, the “Competitive condition, Unbound” value (intact HIgG) was 92.66% and the “Non-competitive, Bound” value (intact HIgG) was 6.08%. For the same substance, the “Non-competitive, Unbound” value (intact HIgG) was 93.92%.

With “HEILYW (not fully specified (C-terminus)) [hexapeptide ligand on Toyopearl resin]” the “Bound %, HIgG, Competitive” value (intact HIgG) was 5.50%, the “Bound %, HIgG, Non-competitive (Micro-BCA)” value (intact HIgG) was 9.16% and the “Bound %, Fc fragment, Non-competitive” value [1] was 18.01%. The “Bound %, Fc fragment, Competitive” value [1] was 3.20%.

In the case of HRPKIF [HRPLIF], the “Bound %, HIgG, Competitive” value (intact HIgG) is reported as 4.51%, the “Bound %, HIgG, Non-competitive (Micro-BCA)” value (intact HIgG) is reported as 11.20% and the “Bound %, Fc fragment, Non-competitive” value [1] is reported as 21.46%. The “Bound %, Fc fragment, Competitive” value [1] was 24.48%.

With “KLQWVH (Immunoglobulin binding peptide sequence) [from KLQMVX, with the substitution of M with W and X with H]” the “Competitive condition, Bound” value (intact HIgG) was 12.15% and the “Competitive condition, Unbound” value (intact HIgG) was 87.85%.

For “HYFKFD [hexapeptide ligand on Toyopearl resin, 0.1 meq/g]”, the “Competitive condition, Unbound” value (intact HIgG) was 56.74%, the “Non-competitive, Bound” value (intact HIgG) was 69.31% and the “Non-competitive, Unbound” value (intact HIgG) was 30.69%. For the same substance, the qm (HIgG; [7]) was 126.8 mg/g and the Kd (HIgG; Table 6, direct Langmuir fit, 0.1 meq/g, PBS pH 7.4, read-out: Kd) was 11.4 µM.

In the case of “HWIDPL (not fully specified (C-terminus)) [hexapeptide ligand on Toyopearl resin]”, the “Competitive condition, Bound” value (intact HIgG) is reported as 19.91%, the “Competitive condition, Unbound” value (intact HIgG) is reported as 80.09% and the “Non-competitive, Bound” value (intact HIgG) is reported as 9.03%. For the same substance, the “Non-competitive, Unbound” value (intact HIgG) was 90.97%.
